Results from PubChem BioAssay (NCI).
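Protocol summary: plate cells (96-well), add compound at 5 concentrations, incubate 48 h, interpolate endpoints linearly. GI50: concentration for 50% inhibition of growth. Definition used: TGI = concentration required for complete inhibition of growth.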

How the values were obtained:
Test in all cases: growth of human tumour cells (NCI), 48 h
[1] = system: ACHN renal
[2] = system: HT29 colon
[3] = system: MOLT-4 leukemia
[4] = system: OVCAR-4 ovarian
[5] = system: RPMI-8226 leukemia
[6] = system: SK-OV-3 ovarian
[7] = system: SNB-75 CNS
[8] = system: SW-620 colon
[9] = system: TK-10 renal
[10] = system: NCI-H460 lung

SMILES | TGI [1] [µM] | TGI [2] [µM] | TGI [3] [µM] | TGI [4] [µM] | TGI [5] [µM] | TGI [6] [µM] | TGI [7] [µM] | TGI [8] [µM] | TGI [9] [µM] | GI50 [1] [µM] | GI50 [2] [µM] | GI50 [3] [µM] | GI50 [10] [µM] | TGI [10] [µM] | GI50 [4] [µM] | GI50 [5] [µM] | GI50 [6] [µM] | GI50 [7] [µM] | GI50 [8] [µM] | GI50 [9] [µM]
CCOC(=O)C(O)(NC(=O)c1ccccc1F)C(F)(F)F (configuration not stated) | > 100 | > 100 | > 100 | > 100 | > 100 | > 100 | > 100 | > 100 | > 100 | – | – | – | – | – | – | – | – | – | – | –
CO/N=C(\C)COc1ccc2c(=O)c(-c3ccccc3)coc2c1 | 38.8 | > 100 | > 100 | > 100 | > 100 | 80 | 81.6 | > 100 | 42.9 | 19.2 | > 100 | > 100 | 30.4 | > 100 | 40.4 | > 100 | 21.9 | 20 | > 100 | 20
COc1cc(C2C(C(=O)O)=C(COC(C)=O)Oc3cc4c(cc32)OCO4)cc(OC)c1OC (configuration not stated) | > 100 | > 100 | > 100 | > 100 | > 100 | > 100 | > 100 | > 100 | > 100 | – | – | – | – | > 100 | – | – | – | – | – | –
CN(C)c1ccc(C(Cc2ccc3ccccc3n2)Cc2ccc3ccccc3n2)cc1 | – | > 100 | – | – | – | – | > 100 | – | > 100 | – | 3.83 | – | 3.14 | > 100 | – | – | – | 3.24 | – | 4.93
